How the values were obtained:
SHV-5 β-lactamase = target: T1, SHV-5 β-lactamase (Klebsiella pneumoniae, UniProt P0A3M1); experiment: biochemical; assay type: biochemical, Escherichia coli; details: crude enzyme extract, 10 min preincubation at 37° C., nitrocefin 100 μM, PBS pH 7.0; read-out: SHV-5 IC50 Range
T1 construct: The β-lactamases were extracted by four cycles of freezing and thawing followed by centrifugation; endogenous in cells; host or cells: Escherichia coli cells containing SHV-5 (crude freeze-thaw extract)
T1 sequence (P0A3M1 22-286): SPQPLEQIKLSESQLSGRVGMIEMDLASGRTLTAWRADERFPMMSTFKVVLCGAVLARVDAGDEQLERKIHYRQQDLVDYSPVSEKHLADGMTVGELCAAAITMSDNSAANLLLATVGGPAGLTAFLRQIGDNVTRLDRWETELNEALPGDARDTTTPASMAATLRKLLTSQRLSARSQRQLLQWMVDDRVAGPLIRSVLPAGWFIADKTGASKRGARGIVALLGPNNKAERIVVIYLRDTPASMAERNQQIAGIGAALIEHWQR
Procedure: (§1) Isolation of β-lactamases. Crude β-lactamase extracts were prepared from 20 ml overnight cultures with shaking. Escherichia coli cells containing SHV-5 or CTXM-15 and Enterobacter cloacae cells containing P99 were further diluted 10-fold and grown to mid-log phase (OD at 600 nm, 0.5-0.8) in Mueller-Hinton II (MH-II) broth at 37° C. The cells were pelleted at 5000 g, washed and resuspended in 2 mL PBS pH 7.0. The β-lactamases were extracted by four cycles of freezing and thawing followed by centrifugation. β-lactamase activity in the extracts was measured with the chromogenic cephalosporin nitrocefin. The amount of protein in each β-lactamase preparation was determined by the bicinchoninic acid (BCA) assay.
(§2) β-lactamase Inhibition. To determine the level of inhibition of β-lactamase enzymes, compounds were diluted in PBS at pH 7.0 to yield concentrations between 100 and 0.005 μM in microtiter plates. An equal volume of diluted enzyme stock was added, and the plates were incubated at 37° C. for 10 min. Nitrocefin solution was then dispensed as substrate into each well at a final concentration of 100 μM, and the plates were immediately read with the kinetic program at 486 nm for 10 min on the SPECTRAMAX® Plus^384 (high-throughput microplate spectrophotometer; Molecular Devices Corp., Sunnyvale, Calif.). Maximum rates of metabolism were then compared to those in control wells (without inhibitors), and percentages of enzyme inhibition were calculated for each concentration of inhibitor. The concentration of inhibitor needed to reduce the initial rate of hydrolysis of substrate by 50% (IC50) was calculated as the residual activity of β-lactamase at 486 nm using the SoftMax Pro 5.0 software (Molecular Devices Corp.).

CTXM-15 β-lactamase = target: T2, CTXM-15 β-lactamase (Escherichia coli, UniProt Q9EXV5); experiment: biochemical; assay type: biochemical; details: crude enzyme extract, 10 min preincubation at 37° C., nitrocefin 100 μM, PBS pH 7.0; read-out: CTXM-15 IC50 Range
T2 construct: The β-lactamases were extracted by four cycles of freezing and thawing followed by centrifugation; endogenous in cells; host or cells: Escherichia coli cells containing CTXM-15 (crude freeze-thaw extract)
T2 sequence (Q9EXV5 29-291): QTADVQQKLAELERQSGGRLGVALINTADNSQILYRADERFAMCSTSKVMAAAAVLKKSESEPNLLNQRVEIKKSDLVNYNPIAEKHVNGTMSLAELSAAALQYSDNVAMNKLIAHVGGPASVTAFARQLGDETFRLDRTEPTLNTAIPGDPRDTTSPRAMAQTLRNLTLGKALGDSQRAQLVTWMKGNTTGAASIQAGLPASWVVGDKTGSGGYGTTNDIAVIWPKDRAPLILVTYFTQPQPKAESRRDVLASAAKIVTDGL
Procedure: as §1, §2

P99 AmpC β-lactamase = target: T3, P99 AmpC β-lactamase (Enterobacter cloacae, UniProt P05364); experiment: biochemical; assay type: biochemical; details: crude enzyme extract, 10 min preincubation at 37° C., nitrocefin 100 μM, PBS pH 7.0; read-out: P99 AmpC IC50 Range
T3 construct: The β-lactamases were extracted by four cycles of freezing and thawing followed by centrifugation; endogenous in cells; host or cells: Enterobacter cloacae cells containing P99 (crude freeze-thaw extract)
T3 sequence (P05364 21-381): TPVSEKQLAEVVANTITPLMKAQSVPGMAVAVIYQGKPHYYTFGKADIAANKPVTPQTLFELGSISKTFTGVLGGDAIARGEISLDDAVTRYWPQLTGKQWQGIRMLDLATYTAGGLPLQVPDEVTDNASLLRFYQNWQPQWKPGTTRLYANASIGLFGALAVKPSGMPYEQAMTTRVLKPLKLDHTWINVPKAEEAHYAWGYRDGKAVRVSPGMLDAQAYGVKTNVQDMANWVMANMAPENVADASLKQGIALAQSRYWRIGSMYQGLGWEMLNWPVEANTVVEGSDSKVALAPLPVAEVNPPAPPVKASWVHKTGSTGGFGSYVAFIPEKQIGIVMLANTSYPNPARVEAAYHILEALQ
Procedure: as §1, §2

[1] = test system: K. pneumoniae expressing the Class A carbapenemase KPC-2; assay type: cell-based; details: in the presence of fixed 8 μg/mL ceftazidime; CAMHB, 16-20 hours at 37° C.
Source text: (§3) To determine the ability of test compounds to potentiate the inhibition of the growth of bacterial strains producing beta-lactamase enzymes, classic cell based screening assays were employed. Four bacteria strains producing beta-lactamase enzymes were used: E. coli expressing the Class A Extended Spectrum Beta-Lactamase (ESBL) CTX-M-15, E. coli expressing the Class A ESBL SHV-5, E. cloacae expressing the Class C P99+, and K. pneumoniae expressing the Class A carbapenemase KPC-2. In order to evaluate the ability of test compounds to inhibit beta-lactamase activity, Applicants used a modification of the broth microdilution assay. The assay was conducted in Cation Adjusted Mueller Hinton Broth (CAMHB, BD #212322, BD Diagnostic Systems, Sparks, Md.). Bacteria strains were grown for 3-5 hours in CAMBH broth. All four strains were grown in presence of 50 μg/mL ampicillin to ensure resistance is maintained. In the meantime, test compounds were diluted in DMSO to a 0.1 mg/mL stock. The compounds were added to a microtiter plate and were diluted in 2-fold serial dilutions in CAMHB in a final concentration range of 32 μg/mL to 0.25 μg/mL. An overlay of CAMHB containing a cephalosporin was added to the compounds at a final static concentration of 8 μg/mL. […] Each of these compound plates are made in quadruplicate, one for each bacteria strain. In addition to the titration of test compounds the MICs of a panel of cephalosporins is also tested to ensure the strains are behaving consistently from test to test. Once the test compound and cephalosporin are added the plates can be inoculated. Inocula are conducted according to CLSI broth microdilution method. After inoculation the plates are incubated for 16-20 hours at 37° C. then the Minimal Inhibitory Concentration (MIC) of the test compound is determined visually.
(§4) Using the methodology described above, examples of the current invention were evaluated for their ability to inhibit the growth of β-lactamase producing bacteria in the presence of a β-lactam antibiotic.

[2] = test system: E. coli expressing the Class A ESBL CTX-M-15; assay type: cell-based; details: in the presence of fixed 8 μg/mL cefotaxime; CAMHB, 16-20 hours at 37° C.
Source text: as §3, §4

[3] = test system: E. cloacae expressing the Class C P99+; assay type: cell-based; details: in the presence of fixed 8 μg/mL ceftazidime; CAMHB, 16-20 hours at 37° C.
Source text: as §3, §4

[4] = test system: E. coli expressing the Class A ESBL SHV-5; assay type: cell-based; details: in the presence of fixed 8 μg/mL ceftazidime; CAMHB, 16-20 hours at 37° C.
Source text: as §3, §4

Row | SMILES | IC50 (SHV-5 β-lactamase) | IC50 (CTXM-15 β-lactamase) | IC50 (P99 AmpC β-lactamase) | MIC of example compound, K. pneumoniae KPC-2 + 8 μg/mL CAZ [1] | MIC of example compound, E. coli CTXM-15 + 8 μg/mL TAX [2] | MIC of example compound, E. cloacae P99+ + 8 μg/mL CAZ [3] | MIC of example compound, E. coli SHV-5 + 8 μg/mL CAZ [4]
1 | O=C(Cc1cccs1)N[C@@H](Cc1cccc(C(=O)O)c1)B(O)O [Example 1, (1R)-1-(2-thiophene-2-yl-acetylamino)-2-(3-carboxyphenyl)ethyl-1-boronic acid] | < 100 nM | < 100 nM | 100 to 1000 nM | C (C represents an MIC of <2 μg/mL) | B (B represents an MIC between 2 and 32 μg/mL) | B (B represents an MIC between 2 and 32 μg/mL) | B (B represents an MIC between 2 and 32 μg/mL)
2 | COc1cccc(CC(=O)N[C@@H](Cc2cccc(C(=O)O)c2)B(O)O)c1 [Example 2, (1R)-1-(3-Methoxyphenylacetylamino)-2-(3-carboxyphenyl)ethyl-1-boronic acid] | < 100 nM | < 100 nM | 100 to 1000 nM | B (B represents an MIC between 2 and 32 μg/mL) | B (B represents an MIC between 2 and 32 μg/mL) | A (A represents an MIC>32 μg/mL) | B (B represents an MIC between 2 and 32 μg/mL)
3 | COc1ccc(CC(=O)N[C@@H](Cc2cccc(C(=O)O)c2)B(O)O)cc1OC [Example 11, (1R)-1-(3,4-Dimethoxyphenylacetylamino)-2-(3-carboxyphenyl)ethyl-1-boronic acid] | < 100 nM | < 100 nM | 100 to 1000 nM | A (A represents an MIC>32 μg/mL) | B (B represents an MIC between 2 and 32 μg/mL) | B (B represents an MIC between 2 and 32 μg/mL) | B (B represents an MIC between 2 and 32 μg/mL)
4 | O=C(CCC(=O)c1cccs1)N[C@@H](Cc1cccc(C(=O)O)c1)B(O)O [Example 12, (1R)-1-(4-Oxo-4-thiophen-2-yl-butyrylamino)-2-(3-carboxyphenyl)ethyl-1-boronic acid] | 100 to 1000 nM | 100 to 1000 nM | < 100 nM | B (B represents an MIC between 2 and 32 μg/mL) | B (B represents an MIC between 2 and 32 μg/mL) | B (B represents an MIC between 2 and 32 μg/mL) | B (B represents an MIC between 2 and 32 μg/mL)
5 | O=C(Cc1cccs1)N[C@@H](Cc1ccc(F)c(C(=O)O)c1)B(O)O [Example 21, (1R)-1-(2-thiophene-2-yl-acetylamino)-2-(3-carboxy-4-fluorophenyl)ethyl-1-boronic acid] | < 100 nM | < 100 nM | 100 to 1000 nM | B (B represents an MIC between 2 and 32 μg/mL) | C (C represents an MIC of <2 μg/mL) | B (B represents an MIC between 2 and 32 μg/mL) | C (C represents an MIC of <2 μg/mL)
6 | O=C(Cc1cccc(O)c1)N[C@@H](Cc1cccc(C(=O)O)c1)B(O)O [Example 22, (1R)-1-(3-Hydroxyphenylacetylamino)-2-(3-carboxyphenyl)ethyl-1-boronic acid] | < 100 nM | < 100 nM | 100 to 1000 nM | B (B represents an MIC between 2 and 32 μg/mL) | B (B represents an MIC between 2 and 32 μg/mL) | B (B represents an MIC between 2 and 32 μg/mL) | C (C represents an MIC of <2 μg/mL)
7 | O=C(Cc1ccsc1)N[C@@H](Cc1cccc(C(=O)O)c1)B(O)O [Example 29, (1R)-1-(2-thiophene-3-yl-acetylamino)-2-(3-carboxyphenyl)ethyl-1-boronic acid] | < 100 nM | 100 to 1000 nM | 100 to 1000 nM | B (B represents an MIC between 2 and 32 μg/mL) | C (C represents an MIC of <2 μg/mL) | A (A represents an MIC>32 μg/mL) | 8 µg/mL
8 | NCCOc1cccc(CC(=O)N[C@@H](Cc2cccc(C(=O)O)c2)B(O)O)c1 [Example 30, (1R)-1-{2-[3-(2-Amino-ethoxy)-phenyl]-acetylamino}-2-(3-carboxyphenyl)ethyl-1-boronic acid] | 100 to 1000 nM | < 100 nM | 100 to 1000 nM | B (B represents an MIC between 2 and 32 μg/mL) | B (B represents an MIC between 2 and 32 μg/mL) | B (B represents an MIC between 2 and 32 μg/mL) | B (B represents an MIC between 2 and 32 μg/mL)
9 | NC(=O)COc1cccc(CC(=O)N[C@@H](Cc2cccc(C(=O)O)c2)B(O)O)c1 [Example 33, (1R)-1-[2-(3-Carbamoylmethoxy-phenyl)-acetylamino}-2-(3-carboxyphenyl)ethyl-1-boronic acid] | < 100 nM | < 100 nM | 100 to 1000 nM |  | B (B represents an MIC between 2 and 32 μg/mL) | B (B represents an MIC between 2 and 32 μg/mL) | B (B represents an MIC between 2 and 32 μg/mL)
10 | O=C(Cc1ccc(O)cc1)N[C@@H](Cc1cccc(C(=O)O)c1)B(O)O [Example 34, (1R)-1-(4-Hydroxyphenylacetylamino)-2-(3-carboxyphenyl)ethyl-1-boronic acid] | < 100 nM | 100 to 1000 nM | < 100 nM |  | B (B represents an MIC between 2 and 32 μg/mL) | B (B represents an MIC between 2 and 32 μg/mL) | B (B represents an MIC between 2 and 32 μg/mL)
11 | O=C(CCC(=O)C1CC1)N[C@@H](Cc1cccc(C(=O)O)c1)B(O)O [Example 36, (1R)-1-(4-Cyclopropyl-4-oxo-butyrylamino)-2-(3-carboxyphenyl)ethyl-1-boronic acid] | > 1000 nM |  | > 1000 nM |  | B (B represents an MIC between 2 and 32 μg/mL) | B (B represents an MIC between 2 and 32 μg/mL) | B (B represents an MIC between 2 and 32 μg/mL)

Reference: US20100317621A1, “BETA-LACTAMASE INHIBITORS” (priority 2007, published 2010)
